From patent US7144867B2, “Anticancer glycoside compounds” (priority 2004, dated 2006)
In brackets after ≈: the same amount, converted by molar mass.

Columns and labels:
[1] = tested on: HUVEC (human umbilical vein endothelial cells); assay: Angiogenesis, tube formation on Matrigel, Frondoside B (Example 5); assay type: cell-based; details: concentrations in the range of 1 μM and greater; contemplated
Procedure: (§1) Test Substance and Concentration.
Cell Line and Culture Media. […] The culture medium used is Endothelial Cell Growth Medium with 10% fetal bovine serum, which is supplemented with 1% Antibiotic-Antimycotic.
Evaluation of anti-proliferation for test substances. Matrigel matrix is thawed, kept on ice at 4° C. and 50 μL transferred to each well of a 96-microwell tissue culture plate. The plate is incubated at 37° C. for at least one hour to allow the matrix solution to solidify before treatment.
(§2) Aliquots of 200 μl of (HUVEC) suspension (about 1.5×10^4 cells/well) are placed in 96-well microtiter plate. Two microliters of compound test solution or vehicle (40% DMSO) is then added per well in duplicate and incubated at 5% CO2 at 37° C. for 18 hours. The final concentration of DMSO is 0.4%. […] Failure to form continuous networks between cell bodies in the presence of test substance is photographed and scored as to the extent of tube disruption at a magnification of 40×. […] The minimum inhibitory concentration (MIC) is calculated to assess the effect of the test substance on angiogenesis.

[2] = tested on: angiogenesis in the animal; assay: Treatment of animals, anti-angiogenic evaluation (Example 6); assay type: in vivo; details: contemplated; range of appropriate doses
Procedure: Frondoside A or B is evaluated for anti-angiogenic (e.g., for research, drug screening or therapeutic purposes) in live animals. Animals (e.g., having or modeling a disease characterized by unwanted angiogenesis) are treated with a range of appropriate doses of Frondoside A or B. Exemplary dosages and dosage schedules include, but are not limited to, those described herein.

[3] = tested on: cancer cells; assay: Anti-cancer / apoptotic promoting activity, method not described
[4] = tested on: DLD-1 (human colon adenocarcinoma); assay: cells; details: for Percent Growth (Mean ± SEM, n = 2): 72-hour
Procedure: Test Substance and Concentration. Frondoside A (CBR-24) was dissolved in 100% DMSO and then diluted with sterile distilled water to obtain initial working solutions of 10000, 1000, 100, 10, and 1 μM in 40% DMSO. A 100-fold dilution was further made in culture media to generate final assay concentration of 100, 10, 1, 0.1 and 0.01 μM in 0.4% of DMSO.
Cell Line and Culture Media. The tumor cell line DLD-1 (human colon adenocarcinoma), obtained from American Type Culture Collection (ATCC CCL-221), was incubated in 95% air-5% CO2 gas mixture at 37° C. The culture medium used was RPMI 1640 with 10% fetal bovine serum, which was supplemented with 1% Antibiotic-Antimycotic.
(§3) Evaluation of anti-proliferation for test substances. Aliquots of 100 μl of cell suspension (about 2.5×10^3 cells/well) were placed in 96-well microtiter plates in an atmosphere of 5% CO2 at 37° C. […] Thus, the final concentration of DMSO was 0.4%. The Frondoside A was evaluated for possible inhibitory effects on cell proliferation at concentrations of 100, 10, 1, 0.1 and 0.01 μM. At the end of incubation, 20 μl of 90% alamarBlue reagent was added to each well for another 6 hour incubation before detection of cell viability by fluorescent intensity. Fluorescent intensity was measured using a Spectrafluor Plus plate reader with excitation at 530 nm and emission at 590 nm.
(§4) Determination of IC50, TGI and LC50. The measured results were calculated by the following formula: PG(%)=100%×(Mean Ftest−Mean Ftime0)/(Mean Fctrl−Mean Ftime0) If (Mean Ftest−Mean Ftime0)<0, then PG (%)=100%×(Mean Ftest−Mean Ftime0)/(Mean Ftime0−Mean Fblank) Where: • PG: percent growth • Mean Ftime0=The average of 2 measured fluorescent intensities of reduced alamarBlue at the time just before exposure of cells to the test substance. • Mean Ftest=The average of 2 measured fluorescent intensities of alamarBlue after 72-hour exposure of cells to the test substance. • Mean Fctrl=The average of 2 measured fluorescent intensities of alamarBlue after 72-hour incubation without the test substance. • Mean Fblank=The average of 2 measured fluorescent intensities of alamarBlue in medium without cells after 72-hour incubation.

[5] = tested on: PC-3 (human prostate adenocarcinoma); assay: cells; details: for Percent Growth (Mean ± SEM, n = 2): 72-hour
Procedure: Test Substance and Concentration. Frondoside A (FAS) was dissolved in 100% DMSO and then diluted with sterile distilled water to obtain initial working solutions of 1000, 300, 100, 30, and 10 μM in 40% DMSO. […]
Cell Line and Culture Media. The tumor cell line PC-3 (human prostate adenocarcinoma), obtained from American Type Culture Collection (ATCC CRL-1435), was incubated in air atmosphere of 5% CO2 at 37° C. The culture medium used was F-12K Nutrient Mixture (Kaighn's Modification) with 3% fetal bovine serum, which was supplemented with 1% Antibiotic-Antimycotic.
as §3, with “of” for “of 100,”, “10, 3,” for “10,”, “1, 0.3 and” for “1,”, “0.1” for “0.1 and 0.01”, “6-hour” for “6 hour”
as §4, with “was” for “were”

[6] = tested on: HUVEC (human umbilical vein endothelial cells); assay: Angiogenesis, tube formation on Matrigel; assay type: cell-based
Procedure: as §1
Cell Line and Culture Media.
Evaluation of anti-proliferation for test substances. Matrigel matrix was thawed, kept on ice at 4° C. and 50 μL transferred to each well of a 96-microwell tissue culture plate. The plate was incubated at 37° C. for at least one hour to allow the matrix solution to solidify before treatment.
as §2, with “cells/well) were” for “cells/well) are”, “DMSO) was” for “DMSO) is”, “DMSO was” for “DMSO is”, “substance was” for “substance is”, “(MIC) was” for “(MIC) is”

3 beta-O-{3-O-methyl-beta-D-glucopyranosyl-(1→3)-O-beta-D-6-sulfonatoglucopyranosyl-(1→4)-O-[beta-D-xylopyranosyl-(1→2)]-O-beta-D-quinovopyranosyl-(1→2)-O-beta-D-4-sulfonatoxylopyranosyl}-holost-7-ene sodium (or potassium) salt [Frondoside B]
inhibition of tube formation relative to the vehicle-treated controls [1]: significant inhibition of tube formation
angiogenesis in the animal [2]: inhibits angiogenesis
anti-cancer activity ([3]; no test described): showed anti-cancer activity
apoptotic promoting activity in cancer cells ([3]; no test described for Frondoside B): apoptotic promoting activity

CO[C@@]12[C@H](COC(N)=O)C3=C(C(=O)C(C)=C(N)C3=O)N1C[C@@H]1N[C@@H]12 [Mitomycin, reference compound]
Percent Growth (Mean ± SEM, n = 2) ([4]; DLD-1, 0.001 μM): 96 ± 5%
Percent Growth (Mean ± SEM, n = 2) ([4]; DLD-1, 0.01 μM): 83 ± 8%
Percent Growth (Mean ± SEM, n = 2) ([4]; DLD-1, 0.1 μM): 66 ± 5%
Percent Growth (Mean ± SEM, n = 2) ([4]; DLD-1, 1 μM): 31 ± 4%
Percent Growth (Mean ± SEM, n = 2) ([4]; DLD-1, 10 μM): −11 ± 7%
TGI (Total Growth Inhibition) ([4]; DLD-1, semi-quantitative, nonlinear regression): 5500 nM
IC50 ([4]; Homo sapiens, DLD-1, read-out: IC50 (50% Inhibition Concentration)): 330 nM
activity of positive control on DLD-1 growth ([4]; at <10 μM): Significant activity
IC50 ([5]; Homo sapiens, read-out: IC50 (50% Inhibition Concentration)): 130 nM
Percent Growth (Mean ± SEM, n = 2) ([5]; PC-3, 0.001 μM): 103 ± 1%
Percent Growth (Mean ± SEM, n = 2) ([5]; PC-3, 0.01 μM): 107 ± 1%
Percent Growth (Mean ± SEM, n = 2) ([5]; PC-3, 0.1 μM): 35 ± 0%
Percent Growth (Mean ± SEM, n = 2) ([5]; PC-3, 1 μM): 6 ± 1%
Percent Growth (Mean ± SEM, n = 2) ([5]; PC-3, 10 μM): −77 ± 2%
TGI (Total Growth Inhibition) ([5]; PC-3, semi-quantitative, nonlinear regression): 750 nM
activity of standard reference agent on PC-3 growth ([5]; at <10 mM): Significant activity

Cc1ccc(C(=O)Nc2ccc(S(=O)(=O)O)c3cc(S(=O)(=O)O)cc(S(=O)(=O)O)c23)cc1NC(=O)c1cccc(NC(=O)Nc2cccc(C(=O)Nc3cc(C(=O)Nc4ccc(S(=O)(=O)O)c5cc(S(=O)(=O)O)cc(S(=O)(=O)O)c45)ccc3C)c2)c1 [Suramin, reference compound]
inhibition of tube formation, standard reference agent ([6]; 10 μM): significant inhibition
inhibition at 0.3 µM ([6]; Homo sapiens, HUVEC, 0.3 μM, 18 hours, read-out: %, Inhibition of the total tube length (Mean ± SEM, n = 2)): -1 ± 8%
inhibition at 1 µM ([6]; Homo sapiens, HUVEC, 1 μM, 18 hours, read-out: %, Inhibition of the total tube length (Mean ± SEM, n = 2)): -1 ± 7%
inhibition at 3 µM ([6]; Homo sapiens, HUVEC, 3 μM, 18 hours, read-out: %, Inhibition of the total tube length (Mean ± SEM, n = 2)): 20 ± 8%
inhibition at 10 µM ([6]; Homo sapiens, HUVEC, 10 μM, 18 hours, read-out: %, Inhibition of the total tube length (Mean ± SEM, n = 2)): 74%
inhibition at 30 µM ([6]; Homo sapiens, HUVEC, 30 μM, 18 hours, read-out: %, Inhibition of the total tube length (Mean ± SEM, n = 2)): 100%
MIC (Minimum Inhibitory Concentration) ([6]; tube formation, significant inhibition ≧30%): 10 µM (≈ 13 µg/mL)
